Source: paper PMC8881077 (Journal of Enzyme Inhibition and Medicinal Chemistry, 2022)

How the values were obtained:
ratAChE = biological target: T1, ratAChE (Rattus norvegicus, UniProt P37136); test: biochemical; settings: for SI: Selectivity Index = IC50 (BuChE)/IC50 (AChE), rat enzymes; for IC50: from 5% rat cortex homogenate, read-out: IC50 ± SD ratAChE
T1 construct: AChE from 5% rat cortex homogenate or human erythrocytes (Sigma Co.); from tissue; host or cells: 5% rat cortex homogenate
T1 sequence (P37136 32-614): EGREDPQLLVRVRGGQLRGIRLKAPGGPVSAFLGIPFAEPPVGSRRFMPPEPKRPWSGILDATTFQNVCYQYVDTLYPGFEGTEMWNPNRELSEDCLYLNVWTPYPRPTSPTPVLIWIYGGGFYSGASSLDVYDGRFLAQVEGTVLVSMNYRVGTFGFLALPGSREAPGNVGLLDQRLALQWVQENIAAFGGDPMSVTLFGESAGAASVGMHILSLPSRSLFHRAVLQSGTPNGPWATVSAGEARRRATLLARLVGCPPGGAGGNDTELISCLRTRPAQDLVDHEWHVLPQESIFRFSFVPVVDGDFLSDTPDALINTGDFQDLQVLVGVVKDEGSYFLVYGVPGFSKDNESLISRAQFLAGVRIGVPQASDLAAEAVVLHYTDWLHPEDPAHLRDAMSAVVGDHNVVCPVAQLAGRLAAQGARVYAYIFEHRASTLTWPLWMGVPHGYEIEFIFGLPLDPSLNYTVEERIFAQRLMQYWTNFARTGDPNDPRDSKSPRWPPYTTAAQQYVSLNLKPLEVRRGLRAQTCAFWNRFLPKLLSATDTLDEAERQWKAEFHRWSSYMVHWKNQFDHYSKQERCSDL
Experimental: (§1) The AChE and BuChE inhibitory activities of the synthesised compounds were evaluated using the Ellman assay with slight modification. AChE from 5% rat cortex homogenate or human erythrocytes (Sigma Co.). BuChE from rat serum or human serum (Sigma Co.).

ratBuChE = biological target: T2, ratBuChE (Rattus norvegicus, UniProt Q9JKC1); test: ratBuChE inhibition, modified Ellman's method; assay type: biochemical
T2 construct: BuChE from rat serum or human serum (Sigma Co.); from tissue; host or cells: rat serum
T2 sequence (Q9JKC1 24-597): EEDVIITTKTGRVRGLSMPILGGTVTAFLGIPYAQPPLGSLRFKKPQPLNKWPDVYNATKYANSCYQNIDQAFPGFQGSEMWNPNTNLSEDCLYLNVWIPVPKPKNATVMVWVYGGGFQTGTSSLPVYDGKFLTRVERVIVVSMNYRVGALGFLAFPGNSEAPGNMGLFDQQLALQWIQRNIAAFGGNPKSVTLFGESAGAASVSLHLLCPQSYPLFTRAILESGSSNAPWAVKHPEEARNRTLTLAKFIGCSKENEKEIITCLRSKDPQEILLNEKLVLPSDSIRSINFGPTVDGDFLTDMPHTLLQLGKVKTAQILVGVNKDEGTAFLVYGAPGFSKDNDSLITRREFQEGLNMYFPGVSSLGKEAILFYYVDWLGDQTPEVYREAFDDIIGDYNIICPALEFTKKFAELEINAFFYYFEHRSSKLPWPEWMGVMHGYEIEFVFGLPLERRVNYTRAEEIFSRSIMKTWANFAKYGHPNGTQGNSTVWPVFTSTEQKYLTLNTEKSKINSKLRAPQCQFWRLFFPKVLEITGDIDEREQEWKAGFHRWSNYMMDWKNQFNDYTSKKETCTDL
Experimental: as §1

[1] = Trolox as standard
Experimental: The skeleton compounds naringenin and apigenin were also evaluated for comparison purposes, and vitamin E analogue Trolox was used as a standard.
The antioxidant potency of target compounds was tested using an oxygen radical absorbance capacity fluorescein (ORAC-FL) assay.

Compound | SI (ratAChE) | IC50 (ratAChE) | IC50 (ratBuChE) | ORAC [1]
O=C1CC(c2ccc(O)cc2)Oc2cc(OCCCCN3CCCCC3)cc(O)c21 (centres unmarked) [Compound 5a, 5-hydroxy-2–(4-hydroxyphenyl)-7–(4-(piperidin-1-yl)butoxy)chroman-4-one] | 3.1 | 6.7 ± 0.31 µM | 20.9 ± 0.68 µM | 2.2 ± 0.03 μM of Trolox equivalent/μM of tested compound
O=C1CC(c2ccc(O)cc2)Oc2cc(OCCCCN3CCc4ccccc4C3)cc(O)c21 (centres unmarked) [Compound 5b, 7–(4-(3,4-dihydroisoquinolin-2(1H)-yl)butoxy)-5-hydroxy-2–(4-hydroxyphenyl)chroman-4-one] | 3.0 | 5.8 ± 0.19 µM | 17.4 ± 0.52 µM | 2.1 ± 0.04 μM of Trolox equivalent/μM of tested compound
CCN(CCCCOc1cc(O)c2c(c1)OC(c1ccc(O)cc1)CC2=O)Cc1ccccc1 (centres unmarked) [Compound 5c, 7–(4-(benzyl(ethyl)amino)butoxy)-5-hydroxy-2–(4-hydroxyphenyl)chroman-4-one] | 5.8 | 3.9 ± 0.44 µM | 22.6 ± 0.23 µM | 2.3 ± 0.02 μM of Trolox equivalent/μM of tested compound
CCN(CCCCOc1cc(O)c2c(c1)OC(c1ccc(O)cc1)CC2=O)Cc1ccccc1OC (centres unmarked) [Compound 5d, 7–(4-(ethyl(2-methoxybenzyl)amino)butoxy)-5-hydroxy-2–(4-hydroxyphenyl)chroman-4-one] | 9.1 | 2 ± 0.46 µM | 18.1 ± 0.56 µM | 2.2 ± 0.02 μM of Trolox equivalent/μM of tested compound
O=C1CC(c2ccc(O)cc2)Oc2cc(OCCCCN3CCN(Cc4ccccc4)CC3)cc(O)c21 (centres unmarked) [Compound 5e, 7–(4-(4-benzylpiperazin-1-yl)butoxy)-5-hydroxy-2–(4-hydroxyphenyl)chroman-4-one] | 1.4 | 9.2 ± 0.72 µM | 13.2 ± 0.43 µM | 2.5 ± 0.01 μM of Trolox equivalent/μM of tested compound
O=C1CC(c2ccc(O)cc2)Oc2cc(OCCCCCN3CCC(Cc4ccccc4)CC3)cc(O)c21 (centres unmarked) [Compound 5g, 7-((5–(4-benzylpiperidin-1-yl)pentyl)oxy)-5-hydroxy-2–(4-hydroxyphenyl)chroman-4-one] | 7.5 | 2.5 ± 0.33 µM | 18.7 ± 0.33 µM | 2.1 ± 0.02 μM of Trolox equivalent/μM of tested compound
CCN(CCCCCCOc1cc(O)c2c(c1)OC(c1ccc(O)cc1)CC2=O)Cc1ccccc1 (centres unmarked) [Compound 5h, 7-((6-(benzyl(ethyl)amino)hexyl)oxy)-5-hydroxy-2–(4-hydroxyphenyl)chroman-4-one] | 4.7 | 3.3 ± 0.09 µM | 15.5 ± 0.52 µM | 2.3 ± 0.03 μM of Trolox equivalent/μM of tested compound
CCN(CCCCCCCCCCOc1cc(O)c2c(c1)OC(c1ccc(O)cc1)CC2=O)Cc1ccccc1 (centres unmarked) [Compound 5i, 7-((10-(benzyl(ethyl)amino)decyl)oxy)-5-hydroxy-2–(4-hydroxyphenyl)chroman-4-one] | 3.0 | 4.9 ± 0.16 µM | 14.7 ± 0.62 µM | 2.1 ± 0.04 μM of Trolox equivalent/μM of tested compound
CCN(CCCCCCCCCCCCOc1cc(O)c2c(c1)OC(c1ccc(O)cc1)CC2=O)Cc1ccccc1 (centres unmarked) [Compound 5j, 7-((12-(benzyl(ethyl)amino)dodecyl)oxy)-5-hydroxy-2–(4-hydroxyphenyl)chroman-4-one] |  | 6.5 ± 0.09 µM | 15.9 ± 0.37 µM | 2.2 ± 0.05 μM of Trolox equivalent/μM of tested compound
O=C1CC(c2ccc(OCCCN3CCc4ccccc4C3)cc2)Oc2cc(OCCCN3CCc4ccccc4C3)cc(O)c21 (centres unmarked) [Compound 7a, 7–(3-(3,4-dihydroisoquinolin-2(1H)-yl)propoxy)-2–(4-(3–(3,4-dihydroisoquinolin-2(1H)-yl)propoxy)phenyl)-5-hydroxychroman-4-one] | 2.0 | 10.1 ± 0.41 µM | 20.2 ± 0.23 µM | 1.1 ± 0.02 μM of Trolox equivalent/μM of tested compound
CCN(CCCOc1ccc(C2CC(=O)c3c(O)cc(OCCCN(CC)Cc4ccccc4)cc3O2)cc1)Cc1ccccc1 (centres unmarked) [Compound 7b, 7–(3-(benzyl(ethyl)amino)propoxy)-2–(4-(3-(benzyl(ethyl)amino)propoxy)phenyl)-5-hydroxychroman-4-one] | 2.5 | 7.4 ± 0.29 µM | 18.7 ± 0.37 µM | 1.2 ± 0.04 μM of Trolox equivalent/μM of tested compound
O=C1CC(c2ccc(OCCCN3CCC(Cc4ccccc4)CC3)cc2)Oc2cc(OCCCN3CCC(Cc4ccccc4)CC3)cc(O)c21 (centres unmarked) [Compound 7c, 7–(3-(4-benzylpiperidin-1-yl)propoxy)-2–(4-(3–(4-benzylpiperidin-1-yl)propoxy)phenyl)-5-hydroxychroman-4-one] | 2.9 | 6.7 ± 0.16 µM | 19.4 ± 0.28 µM | 1.2 ± 0.02 μM of Trolox equivalent/μM of tested compound
O=C1CC(c2ccc(OCCCN3CCC(c4ccccc4)CC3)cc2)Oc2cc(OCCCN3CCC(c4ccccc4)CC3)cc(O)c21 (centres unmarked) [Compound 7d, 5-hydroxy-7–(3-(4-phenylpiperidin-1-yl)propoxy)-2–(4-(3–(4-phenylpiperidin-1-yl)propoxy)phenyl)chroman-4-one] | 2.2 | 9.3 ± 0.37 µM | 20.3 ± 0.26 µM | 1.0 ± 0.03 μM of Trolox equivalent/μM of tested compound
CCN1CCN(CCCOc2ccc(C3CC(=O)c4c(O)cc(OCCCN5CCN(CC)CC5)cc4O3)cc2)CC1 (centres unmarked) [Compound 7e, 7–(3-(4-ethylpiperazin-1-yl)propoxy)-2–(4-(3–(4-ethylpiperazin-1-yl)propoxy)phenyl)-5-hydroxychroman-4-one] | 1.9 | 8.2 ± 0.47 µM | 15.8 ± 0.62 µM | 1.5 ± 0.02 μM of Trolox equivalent/μM of tested compound
O=C1CC(c2ccc(OCCCCN3CCc4ccccc4C3)cc2)Oc2cc(OCCCCN3CCc4ccccc4C3)cc(O)c21 (centres unmarked) [Compound 7f, 7–(4-(3,4-dihydroisoquinolin-2(1H)-yl)butoxy)-2–(4-(4–(3,4-dihydroisoquinolin-2(1H)-yl)butoxy)phenyl)-5-hydroxychroman-4-one] | 3.8 | 5.4 ± 0.16 µM | 20.7 ± 0.55 µM | 1.1 ± 0.03 μM of Trolox equivalent/μM of tested compound
CCN(CCCCOc1ccc(C2CC(=O)c3c(O)cc(OCCCCN(CC)Cc4ccccc4)cc3O2)cc1)Cc1ccccc1 (centres unmarked) [Compound 7g] | 11.2 | 1.4 ± 0.08 µM | 15.7 ± 0.29 µM | 1.2 ± 0.04 μM of Trolox equivalent/μM of tested compound
CCN(CCCCOc1ccc(C2CC(=O)c3c(O)cc(OCCCCN(CC)Cc4ccccc4OC)cc3O2)cc1)Cc1ccccc1OC (centres unmarked) [Compound 7h, 7–(4-(ethyl(2-methoxybenzyl)amino)butoxy)-2–(4-(4-(ethyl(2-methoxybenzyl)amino)butoxy)phenyl)-5-hydroxychroman-4-one] | 19.7 | 0.86 ± 0.05 µM | 16.9 ± 0.34 µM | 1.0 ± 0.04 μM of Trolox equivalent/μM of tested compound
O=C1CC(c2ccc(OCCCCN3CCN(Cc4ccccc4)CC3)cc2)Oc2cc(OCCCCN3CCN(Cc4ccccc4)CC3)cc(O)c21 (centres unmarked) [Compound 7i, 7–(4-(4-benzylpiperazin-1-yl)butoxy)-2–(4–(4-(4-benzylpiperazin-1-yl)butoxy)phenyl)-5-hydroxychroman-4-one] | 2.0 | 6.1 ± 0.21 µM | 12.3 ± 0.16 µM | 1.4 ± 0.03 μM of Trolox equivalent/μM of tested compound
O=C1CC(c2ccc(OCCCCN3CCC(Cc4ccccc4)CC3)cc2)Oc2cc(OCCCCN3CCC(Cc4ccccc4)CC3)cc(O)c21 (centres unmarked) [Compound 7j] | 11.2 | 1.3 µM |  | 1.1 ± 0.03 μM of Trolox equivalent/μM of tested compound
CCN(CCCCCCOc1ccc(C2CC(=O)c3c(O)cc(OCCCCCCN(CC)Cc4ccccc4)cc3O2)cc1)Cc1ccccc1 (centres unmarked) [Compound 7l] | 6.9 | 2.2 ± 0.13 µM | 15.1 ± 0.28 µM | 1.2 ± 0.01 μM of Trolox equivalent/μM of tested compound
O=c1cc(-c2ccc(OCCCN3CCc4ccccc4C3)cc2)oc2cc(OCCCN3CCc4ccccc4C3)cc(O)c12 [Compound 10a, 7–(3-(3,4-dihydroisoquinolin-2(1H)-yl)propoxy)-2–(4-(3–(3,4-dihydroisoquinolin-2(1H)-yl)propoxy)phenyl)-5-hydroxy-4H-chromen-4-one] | 2.1 | 8.1 ± 0.27 µM | 16.8 ± 0.36 µM | 1.1 ± 0.01 μM of Trolox equivalent/μM of tested compound
CCN(CCCOc1ccc(-c2cc(=O)c3c(O)cc(OCCCN(CC)Cc4ccccc4)cc3o2)cc1)Cc1ccccc1 [Compound 10b, 7–(3-(benzyl(ethyl)amino)propoxy)-2–(4-(3-(benzyl(ethyl)amino)propoxy)phenyl)-5-hydroxy-4H-chromen-4-one] | 4.3 | 4.3 ± 0.38 µM | 18.6 ± 0.24 µM | 1.0 ± 0.04 μM of Trolox equivalent/μM of tested compound
